Reference: patent US9169217B2, “Arylalkyl esters of 4-amino-6-(substituted phenyl)-picolinates and 6-amino-2-(substituted phenyl)-pyrimidinecarboxylates and their use as selective herbicides for crops” (Dow AgroSciences LLC, priority 2011, dated 2015)

Legend:
Format in all cases: in vivo
[1] = test system: Cirsium arvense (Thistle, Canada); test: Postemergence herbicidal activity in pastures (Example 15); details: pasture cropping systems, postemergence spray, 35 DAA
Method: (§1) Seeds of the desired test plant species were planted in Sun Gro Metro-Mix® 360 planting mixture, which typically has a pH of 6.0 to 6.8 and an organic matter content of about 30 percent, in plastic pots with a surface area of 139.7 cm^2. When required to ensure good germination and healthy plants, a fungicide treatment and/or other chemical or physical treatment was applied. The plants were grown with an approximate 14 h photoperiod which was maintained at about 24° C. during the day and 21° C. during the night. Nutrients and water were added on a regular basis and supplemental lighting was provided with overhead metal halide 1000-Watt lamps as necessary. The plants were employed for testing when they reached the four or six true leaf stage, depending on species.
(§2) Treatments consisted of esters of compounds 39 and G. Compound G is methyl 4-amino-3-chloro-6-(4-chloro-2-fluoro-3-methoxyphenyl)picolinate. A weighed amount, determined by the highest rate to be tested, of each test compound was placed in a 25 mL glass vial and was dissolved in 8 mL of a 97:3 v/v mixture of acetone and DMSO to obtain concentrated stock solutions. […] The concentrated stock solutions obtained were diluted with 16 mL of an aqueous mixture containing acetone, water, isopropyl alcohol, DMSO, Agri-dex crop oil concentrate, and Triton® X-77 surfactant in a 64.7:26.0:6.7:2.0:0.7:0.01 v/v ratio to obtain spray solutions containing the highest application rates. Additional application rates were obtained by serial dilution of 12 mL of the high rate solution into a solution containing 4 mL of a 97:3 v/v mixture of acetone and DMSO and 8 mL of an aqueous mixture containing acetone, water, isopropyl alcohol, DMSO, Agri-dex crop oil concentrate, and Triton® X-77 surfactant in a 48.5:39.0:10.0:1.5:1.0:0.02 v/v ratio to obtain ½×, ¼×, ⅛× and 1/16× rates of the high rate. Compound requirements are based upon a 12 mL application volume at a rate of 187 L/ha. Formulated compounds were applied to the plant material with an overhead Mandel track sprayer equipped with 8002E nozzles calibrated to deliver 187 L/ha over an application area of 0.503 m^2 at a spray height of 18 inches (43 cm) above average plant canopy height. Control plants were sprayed in the same manner with the blank.
(§3) The treated plants and control plants were placed in a greenhouse as described above and watered by sub-irrigation to prevent wash-off of the test compounds. After 35 d, the condition of the test plants as compared with that of the untreated plants was determined visually and scored on a scale of 0 to 100 percent where 0 corresponds to no injury and 100 corresponds to complete kill.

[2] = test system: Solidago L. spec (Goldenrod); test: as above; details: pasture cropping systems, postemergence spray, 35 DAA
Method: as §1, §2, §3

[3] = test system: Cirsium arvense (Thistle, Canada); test: Postemergence herbicidal activity in cereal crops (Example 14); details: wheat cropping systems, postemergence spray, 21 DAA
Method: (§4) Seeds of the desired test plant species were planted in Sun Gro Metro-Mix® 360 planting mixture, which typically has a pH of 6.0 to 6.8 and an organic matter content of about 30 percent, in plastic pots with a surface area of 84.6 cm^2. When required to ensure good germination and healthy plants, a fungicide treatment and/or other chemical or physical treatment was applied. The plants were grown for 7-36 d in a greenhouse with an approximate 14 h photoperiod which was maintained at about 18° C. during the day and 17° C. during the night. Nutrients and water were added on a regular basis and supplemental lighting was provided with overhead metal halide 1000-Watt lamps as necessary. The plants were employed for testing when they reached the second or third true leaf stage.
(§5) Treatments consisted of esters of compounds 33, 34, 39, 40 and 42 and B, F, G and H. Compound B is methyl 4-amino-3-chloro-6-(4-cyclopropylphenyl)-5-fluoropicolinate; compound F is methyl 6-amino-2-(4-chloro-2-fluoro-3-methoxyphenyl)-5-methoxypyrimidine-4-carboxylate; compound G is methyl 4-amino-3-chloro-6-(4-chloro-2-fluoro-3-methoxyphenyl)picolinate; and compound H is methyl 4-amino-3-chloro-6-(4-chloro-2-fluoro-3-(1-fluoroethyl)phenyl)-5-fluoropicolinate. A weighed amount, determined by the highest rate to be tested, of each test compound was placed in a 25 mL glass vial and was dissolved in 8 mL of a 97:3 v/v mixture of acetone and DMSO to obtain concentrated stock solutions. […] The concentrated stock solutions obtained were diluted with 16 mL of an aqueous mixture containing acetone, water, isopropyl alcohol, DMSO, Agri-dex crop oil concentrate, and Triton® X-77 surfactant in a 64.7:26.0:6.7:2.0:0.7:0.01 v/v ratio to obtain spray solutions containing the highest application rates. Additional application rates were obtained by serial dilution of 12 mL of the high rate solution into a solution containing 4 mL of a 97:3 v/v mixture of acetone and DMSO and 8 mL of an aqueous mixture containing acetone, water, isopropyl alcohol, DMSO, Agri-dex crop oil concentrate, and Triton® X-77 surfactant in a 48.5:39.0:10.0:1.5:1.0:0.02 v/v ratio to obtain ½×, ¼×, ⅛× and 1/16× rates of the high rate. Compound requirements are based upon a 12 mL application volume at a rate of 187 L/ha. Formulated compounds were applied to the plant material with an overhead Mandel track sprayer equipped with 8002E nozzles calibrated to deliver 187 L/ha over an application area of 0.503 m^2 at a spray height of 18 inches (43 cm) above average plant canopy height. Control plants were sprayed in the same manner with the blank.
as §3, with “20-22” for “35”

Kochia scoparia (Kochia) = test: as above; details: wheat cropping systems, postemergence spray, 35 g ae/ha, 21 DAA
Method: as §4, §5
as §3, with “20-22” for “35”

[4] = test system: Salsola kali (Thistle, Russian); test: as above; details: wheat cropping systems, postemergence spray, 35 g ae/ha, 21 DAA
Method: as §4, §5
as §3, with “20-22” for “35”

SMILES | Visual Injury (%) CIRAR ([1]; 17.5 g ae/ha) [%] | Visual Injury (%) CIRAR ([1]; 35 g ae/ha) [%] | Visual Injury (%) SOOSS ([2]; 70 g ae/ha) [%] | Visual Injury (%) SOOSS ([2]; 140 g ae/ha) [%] | Visual Injury (%) CIRAR ([3]; 8.75 g ae/ha) [%] | Visual Injury (%) CIRAR ([3]; 17.5 g ae/ha) [%] | Visual Injury (%) KCHSC (Kochia scoparia (Kochia)) [%] | Visual Injury (%) SASKR [4] [%]
COC(=O)c1nc(-c2ccc(Cl)c(OC)c2F)cc(N)c1Cl [Compound G, methyl 4-amino-3-chloro-6-(4-chloro-2-fluoro-3-methoxyphenyl)picolinate, reference compound] | 40 | 60 | 30 | 50 | 70 | 80 | 87 | 80
COc1c(Cl)ccc(-c2cc(N)c(Cl)c(C(=O)OCc3ccccc3)n2)c1F [Compound 39] | 100 | 95 | 85 | 100 | 90 | 95 | 95 | 90
